# Measured values taken from patent US11691986B2, “PTEFB inhibiting macrocyclic compounds” (Bayer Aktiengesellschaft, priority 2017, dated 2023).
# What was measured:
# CDK2/CycE = molecular target: T1, CDK2/CycE (Homo sapiens, UniProt P24941); test: CDK2/CycE high ATP kinase assay (TR-FRET); format: biochemical; details: 2 mM ATP, Method 2b
# T1 construct: GST; purchased ProQinase GmbH (Freiburg, Germany); host or cells: insect cells (Sf9)
# Description: 2b. CDK2/CycE High ATP Kinase Assay
# CDK2/CycE-inhibitory activity of compounds of the present invention at 2 mM adenosine-tri-phosphate (ATP) was quantified employing the CDK2/CycE TR-FRET (TR-FRET=Time Resolved Fluorescence Energy Transfer) assay as described in the following paragraphs.
# Recombinant fusion proteins of GST and human CDK2 and of GST and human CycE, expressed in insect cells (Sf9) and purified by Glutathion-Sepharose affinity chromatography, were purchase from ProQinase GmbH (Freiburg, Germany). As substrate for the kinase reaction biotinylated peptide biotin-Ttds-YISPLKSPYKISEG (C-terminus in amid form) was used which can be purchased e.g. form the company JERINI peptide technologies (Berlin, Germany).
# For the assay 50 nl of a 100 fold concentrated solution of the test compound in DMSO was pipetted into either a black low volume 384 well microtiter plate or a black 1536 well microtiter plate (both Greiner Bio-One, Frickenhausen, Germany), 2 μl of a solution of CDK2/CycE in aqueous assay buffer [50 mM Tris/HCl pH 8.0, 10 mM MgCl2, 1.0 mM dithiothreitol, 0.1 mM sodium ortho-vanadate, 0.01% (v/v) Nonidet-P40 (Sigma)] were added and the mixture was incubated for 15 min at 22° C. to allow pre-binding of the test compounds to the enzyme before the start of the kinase reaction. […] The concentration of CDK2/CycE was adjusted depending of the activity of the enzyme lot and was chosen appropriate to have the assay in the linear range, typical concentrations were about 10 ng/ml. The reaction was stopped by the addition of 3 μl of a solution of TR-FRET detection reagents (0.333 μM streptavidine-XL665 [Cisbio Bioassays, Codolet, France] and 1.67 nM anti-RB(pSer807/pSer811)-antibody from BD Pharmingen [#558389] and 2 nM LANCE EU-W1024 labeled anti-mouse IgG antibody [Perkin-Elmer, product no. AD0077, as an alternative a Terbium-cryptate-labeled anti-mouse IgG antibody from Cisbio Bioassays can be used]) in an aqueous EDTA-solution (167 mM EDTA, 0.2% (w/v) bovine serum albumin in 100 mM HEPES pH 7.5).
# The resulting mixture was incubated 1 h at 22° C. to allow the formation of complex between the phosphorylated biotinylated peptide and the detection reagents. Subsequently the amount of phosphorylated substrate was evaluated by measurement of the resonance energy transfer from the Eu-chelate to the streptavidine-XL. Therefore, the fluorescence emissions at 620 nm and 665 nm after excitation at 350 nm was measured in a TR-FRET reader, e.g. a Pherastar (BMG Labtechnologies, Offenburg, Germany) or a Viewlux (Perkin-Elmer). The ratio of the emissions at 665 nm and at […] was taken as the measure for the amount of phosphorylated substrate. The data were normalised (enzyme reaction without inhibitor=0% inhibition, all other assay components but no enzyme=100% inhibition).
# DU145 cells = test: Proliferation assay, DU145 (crystal violet); format: cell-based; details: Homo sapiens, DU-145, 96 h; DU145, 4 days; read-out: Inhibition of DU145 cell proliferation IC50
# Description: (§1) Cultivated tumour cells (HeLa, human cervical tumour cells, ATCC CCL-2; NCI-H460, human non-small cell lung carcinoma cells, ATCC HTB-177; DU 145, hormone-independent human prostate carcinoma cells, ATCC HTB-81; HeLa-MaTu-ADR, multidrug-resistant human cervical carcinoma cells, EPO-GmbH Berlin; Caco-2, human colorectal carcinoma cells, ATCC HTB-37; B16F10, mouse melanoma cells, ATCC CRL-6475) were plated at a density of 5,000 cells/well (DU145, HeLa-MaTu-ADR), 3,000 cells/well (NCI-H460, HeLa), 1,500 cells/well (Caco-2), or 1,000 cells/well (B16F10) in a 96-well multititer plate in 200 μL of their respective growth medium supplemented 10% fetal calf serum. After 24 hours, the cells of one plate (zero-point plate) were stained with crystal violet (see below), while the medium of the other plates was supplemented with the test substances in various concentrations (0 μM, as well as in the range of 0.0001-10 μM; the final concentration of the solvent dimethyl sulfoxide was adjusted to 0.1%) using a Hewlett-Packard HP D300 Digital Dispenser. The cells were incubated for 4 days in the presence of test substances. Cell proliferation was determined by staining the cells with crystal violet: the cells were fixed by adding 20 μl/measuring point of an 11% glutaric aldehyde solution for 15 minutes at room temperature. After three washing cycles of the fixed cells with water, the plates were dried at room temperature. The cells were stained by adding 100 μl/measuring point of a 0.1% crystal violet solution (pH 3.0). After three washing cycles of the stained cells with water, the plates were dried at room temperature. The dye was dissolved by adding 100 μl/measuring point of a 10% acetic acid solution. The extinction was determined by photometry at a wavelength of 595 nm. The change of cell number, in percent, was calculated by normalization of the measured values to the extinction values of the zero-point plate (=0%) and the extinction of the untreated (0 Wm) cells (=100%). The IC50 values (inhibitory concentration at 50% of maximal effect) were determined by means of a 4 parameter fit.
# NCI-H460 cells = test: Proliferation assay, NCI-H460 (crystal violet); format: cell-based; details: Homo sapiens, 96 h; NCI-H460, 4 days; read-out: Inhibition of NCI-H460 cell proliferation IC50
# Description: as §1
# MOLM-13 cells = test: Proliferation assay, MOLM-13 (Cell Titre-Glo); format: cell-based; details: Homo sapiens; MOLM-13, 72-hour exposure; read-out: Inhibition of MOLM-13 cell proliferation IC50
# Description: A2780 human ovarian carcinoma cells (ECACC #93112519) and non-adherent MOLM-13 human acute myeloid leukemia cells (DSMZ ACC 554) were seeded at a density of 3,000 cell/well (A2780) or 5,000 cells/well (MOLM-13) in a 96-well multititer plate in 150 μL of growth medium supplemented 10% fetal calf serum. After 24 hours, cell viability of one plate (zero-point plate) was determined with the Cell Titre-Glo Luminescent Cell Viability Assay (Promega), while the medium of the other plates was supplemented with the test substances in various concentrations (0 μM, as well as in the range of 0.0001-10 μM; the final concentration of the solvent dimethyl sulfoxide was adjusted to 0.1%) using a Hewlett-Packard HP D300 Digital Dispenser. Cell viability was assessed after 72-hour exposure with the Cell Titre-Glo Luminescent Cell Viability Assay (Promega). IC50 values (inhibitory concentration at 50% of maximal effect) were determined by means of a 4 parameter fit on measurement data which were normalized to vehicle (DMSO) treated cells (=100%) and measurement readings taken immediately before compound exposure (=0%).
structure (smiles),measurement,setting,value
"CC(C)(C)OC(=O)N=S(C)(=O)Cc1cc2cc(c1)OCCCCNc1cc(ccc1F)-c1nc(ncc1F)N2 (racemic) [Example 1, (rac)-tert-butyl [{[3,20-difluoro-13-oxa-5,7,18,25-tetraazatetracyclo[17.3.1.1^2,6.1^8,12]pentacosa-1(23),2(25),3,5,8(24),9,11,19,21-nonaen-10-yl]methyl}(methyl)oxido-λ^6-sulfanylidene]carbamate]",IC50,CDK2/CycE,0.855 µM
same,IC50,DU145 cells,0.036 µM
same,IC50,NCI-H460 cells,0.033 µM
same,IC50,MOLM-13 cells,0.0071 µM
"CS(=N)(=O)Cc1cc2cc(c1)OCCCCNc1cc(ccc1F)-c1nc(ncc1F)N2 (racemic) [Example 2, (rac)-3,20-difluoro-10-[(S-methylsulfonimidoyl)methyl]-13-oxa-5,7,18,25-tetraazatetracyclo[17.3.1.1^2,6.1^8,12]pentacosa-1(23),2(25),3,5,8(24),9,11,19,21-nonaene]",IC50,CDK2/CycE,0.155 µM
same,IC50,DU145 cells,0.0045 µM
same,IC50,NCI-H460 cells,0.0092 µM
same,IC50,MOLM-13 cells,0.002 µM
"CS(=N)(=O)Cc1cc2cc(c1)OCCCNc1cc(ccc1F)-c1nc(ncc1F)N2 (racemic) [Example 3, (rac)-3,19-difluoro-10-[(S-methylsulfonimidoyl)methyl]-13-oxa-5,7,17,24-tetraazatetracyclo[16.3.1.1^2,6.1^8,12]tetracosa-1(22),2(24),3,5,8(23),9,11,18,20-nonaene]",IC50,CDK2/CycE,0.829 µM
same,IC50,DU145 cells,0.017 µM
same,IC50,NCI-H460 cells,0.025 µM
same,IC50,MOLM-13 cells,0.0058 µM
"CC1CCCNc2cc(ccc2F)-c2nc(ncc2F)Nc2cc(CS(C)(=O)=O)cc(c2)O1 (racemic) [Example 8, (rac)-3,20-difluoro-14-methyl-10-[(methylsulfonyl)methyl]-13-oxa-5,7,18,25-tetraazatetracyclo[17.3.1.1^2,6.1^8,12]pentacosa-1(23),2(25),3,5,8(24),9,11,19,21-nonaene]",IC50,CDK2/CycE,0.464 µM
